# Reference: US20080038728A1, “Quadruple Transformed Cell Line Useful for the Identification of Transport Inhibitors” (priority 2004, published 2008)
# Legend:
# OATP2B1 = molecular target: T1, OATP2B1 (Homo sapiens, UniProt O94956); assay: Uptake (intracellular accumulation) kinetics in ABCC2/OATP2B1 double-transfected MDCKII cells; assay type: in vitro ADME; set-up: expressed in transfected cells; host or cells: MDCKII (canine kidney) ABCC2 single-transfectant, further transfected with pcDNA3.1/Hygro(-)-OATP2B1; conditions: cell line ABCC2-OATP2B1; intracellular accumulation of 3H-labeled substrate
# T1 sequence (O94956 1-709): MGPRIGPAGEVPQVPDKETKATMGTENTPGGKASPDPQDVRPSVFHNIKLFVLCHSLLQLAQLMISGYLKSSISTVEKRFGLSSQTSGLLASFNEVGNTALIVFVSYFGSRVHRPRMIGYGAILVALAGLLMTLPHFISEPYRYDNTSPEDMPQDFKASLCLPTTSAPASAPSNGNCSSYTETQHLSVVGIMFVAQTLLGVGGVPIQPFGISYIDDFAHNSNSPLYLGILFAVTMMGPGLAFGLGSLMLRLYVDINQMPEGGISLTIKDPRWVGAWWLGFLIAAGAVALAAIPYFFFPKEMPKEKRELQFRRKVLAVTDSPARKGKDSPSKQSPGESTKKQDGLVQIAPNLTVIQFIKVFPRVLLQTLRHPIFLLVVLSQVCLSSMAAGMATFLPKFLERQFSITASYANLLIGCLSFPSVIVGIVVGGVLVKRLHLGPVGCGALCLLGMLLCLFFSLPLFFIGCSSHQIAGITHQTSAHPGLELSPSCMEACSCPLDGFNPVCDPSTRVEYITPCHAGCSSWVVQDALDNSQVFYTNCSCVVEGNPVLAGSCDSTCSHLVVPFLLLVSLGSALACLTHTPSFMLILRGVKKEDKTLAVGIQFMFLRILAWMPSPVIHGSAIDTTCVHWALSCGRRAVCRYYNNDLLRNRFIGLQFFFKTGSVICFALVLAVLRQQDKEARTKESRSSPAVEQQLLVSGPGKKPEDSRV
# Description: (a) MDCKII cells were grown on ThinCerts (24-mm diameter, pore size 0.4 μm, pore density 1×10^8 per cm^2) and induced with butyrate as mentioned above. […] The ^3H-labeled substrate was dissolved in transport buffer and added either to the apical or to the basolateral compartment at the concentration indicated. After incubation at 37° C., the radioactivity in the opposite compartment was measured by sampling aliquots from the apical or basolateral compartment. Cells were washed 2 times with ice-cold transport buffer containing 0.5% bovine serum albumin and 3 times in ice-cold transport buffer. Intracellular accumulation of radioactivity was calculated by lyzing the cells with 0.2% sodium dodecyl sulfate (SDS) and measuring the radioactivity in the lysate.
# OATP1B1 = molecular target: T2, OATP1B1 (Homo sapiens, UniProt Q9Y6L6); conditions: cRNA-injected Xenopus laevis oocytes; cited from earlier work
# T2 sequence (Q9Y6L6 1-691): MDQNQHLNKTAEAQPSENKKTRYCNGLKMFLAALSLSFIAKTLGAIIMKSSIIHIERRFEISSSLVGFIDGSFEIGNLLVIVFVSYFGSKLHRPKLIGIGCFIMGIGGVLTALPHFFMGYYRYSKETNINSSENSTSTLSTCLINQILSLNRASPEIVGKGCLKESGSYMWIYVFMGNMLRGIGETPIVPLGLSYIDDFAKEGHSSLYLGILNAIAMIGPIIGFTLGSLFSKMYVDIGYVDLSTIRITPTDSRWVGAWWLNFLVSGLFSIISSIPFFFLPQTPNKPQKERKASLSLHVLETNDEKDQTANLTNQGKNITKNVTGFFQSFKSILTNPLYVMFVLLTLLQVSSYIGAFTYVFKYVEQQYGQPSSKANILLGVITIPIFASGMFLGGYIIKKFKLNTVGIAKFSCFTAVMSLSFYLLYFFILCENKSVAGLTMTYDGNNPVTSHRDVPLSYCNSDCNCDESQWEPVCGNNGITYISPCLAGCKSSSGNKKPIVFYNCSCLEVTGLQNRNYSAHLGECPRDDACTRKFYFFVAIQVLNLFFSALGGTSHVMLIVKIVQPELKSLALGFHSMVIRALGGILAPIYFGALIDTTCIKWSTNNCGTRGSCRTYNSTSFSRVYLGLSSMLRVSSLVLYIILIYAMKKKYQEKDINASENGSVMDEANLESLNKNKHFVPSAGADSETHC
# OATP1B3 = molecular target: T3, OATP1B3 (Homo sapiens, UniProt Q9NPD5); conditions: BSP uptake, background section; cited from earlier work
# T3 sequence (Q9NPD5 1-702): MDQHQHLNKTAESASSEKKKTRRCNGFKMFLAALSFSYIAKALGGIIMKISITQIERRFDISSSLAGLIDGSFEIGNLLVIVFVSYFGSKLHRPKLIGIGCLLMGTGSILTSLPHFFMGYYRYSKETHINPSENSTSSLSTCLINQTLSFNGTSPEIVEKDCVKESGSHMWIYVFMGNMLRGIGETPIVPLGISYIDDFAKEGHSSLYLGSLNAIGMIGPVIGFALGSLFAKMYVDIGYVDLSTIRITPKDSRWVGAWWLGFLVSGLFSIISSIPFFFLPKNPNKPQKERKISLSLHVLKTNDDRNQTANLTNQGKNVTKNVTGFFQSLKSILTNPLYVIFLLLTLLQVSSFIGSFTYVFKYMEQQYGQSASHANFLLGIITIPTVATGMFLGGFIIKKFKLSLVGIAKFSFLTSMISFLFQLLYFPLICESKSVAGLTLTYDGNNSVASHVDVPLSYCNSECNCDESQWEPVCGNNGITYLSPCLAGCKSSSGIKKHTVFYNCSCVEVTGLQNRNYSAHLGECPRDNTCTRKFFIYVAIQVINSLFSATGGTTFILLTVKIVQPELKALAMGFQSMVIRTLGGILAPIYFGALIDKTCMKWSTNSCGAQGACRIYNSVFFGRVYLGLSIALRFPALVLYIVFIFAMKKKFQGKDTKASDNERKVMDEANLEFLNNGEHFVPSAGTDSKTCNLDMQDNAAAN
smiles,measurement,setting,value
O=C1OC(c2ccc(O)c(S(=O)(=O)O)c2)(c2ccc(O)c(S(=O)(=O)O)c2)c2c(Br)c(Br)c(Br)c(Br)c21 [Bromosulfophthalein],Vmax,OATP2B1,52.8 ± 8.6 pmol · mg protein^−1 · min^−1
same,Km,OATP1B1,0.3 µM
same,Km,OATP1B3,3.4 µM
